Source: patent EP4459287A1, “METHODS AND TOOLS FOR DETECTING THE IMPACT OF COMPOUNDS ON PROTEIN, RNA OR DNA INTERACTIONS” (Synsight "Génopole Entreprises", priority 2023, dated 2024)
Each block holds one compound with its values, some of them ahead of it.

Columns and labels:
MDM2-FL_C_GFP (human) = MDM2-FL_C_GFP (human) (UniProt Q00987); experiment: MT bench normalized PCC score, fixed U-2 OS cells
TDP-43 = experiment: Four TDP-43 tests (stress granule enrichment, subcellular localization, CFTR alternative splicing, G146A aggregation); format: cell-based
Source text: The 13 selected compounds have then been tested in the three cellular tests, i.e. enrichment of wt TDP-43 in stress granules and their subcellular localization in presence of the compounds to be tested, and the effects of the compounds to be tested on the alternative splicing of the cystic fibrosis transmembrane conductance regulator (CFTR) gene by wt TDP-43. Finally, the effects of the 13 compounds on the aggregation of the G146A mutant of TDP-43 has been tested.

[1] = cellular data, Vu et al., 2013; read-out: IC50 MTT assay; cited from earlier work
p53/MDM2 interaction = target: T1, p53/MDM2 interaction (Homo sapiens, UniProt Q00987); experiment: MT bench cell-based assay of p53/MDM2 interaction on HCS (PCC co-localization score); settings: for inhibition of the p53/MDM2 interaction: U-2 OS cells
T1 construct: Human p53 and MDM2 full length cDNA were amplified by PCR; expressed in transfected cells; host or cells: U-2 OS (human osteosarcoma)
T1 sequence (Q00987 whole entry): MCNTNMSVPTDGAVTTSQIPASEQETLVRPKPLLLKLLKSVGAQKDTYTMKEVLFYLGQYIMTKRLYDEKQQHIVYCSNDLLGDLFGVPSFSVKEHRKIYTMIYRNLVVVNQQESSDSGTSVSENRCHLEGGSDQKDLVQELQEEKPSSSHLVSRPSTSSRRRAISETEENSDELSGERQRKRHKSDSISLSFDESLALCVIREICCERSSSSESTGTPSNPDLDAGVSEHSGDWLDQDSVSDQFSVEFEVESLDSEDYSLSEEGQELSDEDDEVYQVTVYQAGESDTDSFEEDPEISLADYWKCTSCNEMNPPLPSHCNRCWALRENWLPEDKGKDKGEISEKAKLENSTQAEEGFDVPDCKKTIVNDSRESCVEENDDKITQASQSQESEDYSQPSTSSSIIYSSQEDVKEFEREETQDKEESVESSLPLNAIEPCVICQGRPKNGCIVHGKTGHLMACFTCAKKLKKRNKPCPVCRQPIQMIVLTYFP
Procedure: The MT bench was done using Human Osteosarcoma (U-2 OS) cell line which is the reference for cellular imagery. U-2 OS cells were cultured at 37°C in a humidified atmosphere with 5% CO2 in Dulbecco's modified Eagle's medium (DMEM, Life Technologies) supplemented with 10% FBS (Fetal Bovine Serum, Life Technologies) and 1% penicillin/streptomycin.
The generation of the cellular plate (seeding, transfection, treatment) was done automatically using the liquid handler BRAVO from Agilent equipped with a 96-LT (Large Tips) head. U-2 OS cells were seeded on black 96-well plates cell carrier ultra (PerkinElmer) at a density of 18.000 cells per well and after 24h incubation in a humidified incubator at 37°C with 5% CO2 were co-transfected with 12µg human p53-FL(SEQ ID N°15)_C_RFP- MBD and 03µg human MDM2-FL(SEQ ID N°21)_C_GFP plasmids for the positive control (untreated condition) or 12µg human p53-F19AW23AL26A(SEQ ID N°20)_C_RFP-MBD and 0.3µg human MDM2-FL(SEQ ID N°21)_C_GFP plasmids corresponding to the negative control (non-interacting condition / treated condition) using 0.5µg Lipofectamine 2000 (Invitrogen) in optiMEM for 18h.
After 18h of transfection, cells were fixed with ice-cold methanol 100% for 10min at -20°C, washed with PBS and then further fixed with 4% Para FormAldehyde (PFA) in PBS freshly prepared for 10min at RT. […] After washing with PBS, cell nuclei were stained with DAPI (0.1µg/mL) for 5min at RT and samples kept into PBS for fluorescence microscopy imaging. The cellular fluorescent signal was acquired on HCS imaging system Opera Phenix from PerkinElmer, using a 40X water immersion 1.1NA objective and with Harmony® software.
After image acquisition, successive building blocks from Harmony® software was used for image segmentation (find nuclei, find cytoplasm, and select population through threshold on GFP and RFP maximum and mean intensities, as well as cell area). Both images were then filtered using SER Ridge filters to highlight microtubule structures in the cytoplasm.
The PCC is a well-established correlation score to measure co-localization and calculated as follows [formula] where Ri and Gi are the pixel intensity values and Rav and Gav are the means of red and green channel, respectively. The values are range between +1 (perfect correlation) to -1 (perfect inverse correlation), with 0 being the absence of co-localization. Thus, the PCC values reflect the co-localization between bait and prey proteins into cytoplasm, translating the interaction on the microtubule network.
This normalization was done by extrapolating the PCC values relatively to the controls, by using the mean of negative control wells and the mean of positive control wells.

Chain of MDM2-FL_C_GFP (human) (Q00987 whole entry): as above

- percent of the interaction abrogated (against wild-type p53) (MDM2-FL_C_GFP (human)): > 90%
Compound: p53-F19A_C_RFP-MBD

Compound: Nc1ncnc2c1c(I)cn2[C@@H]1O[C@H](CO)[C@@H](O)[C@H]1O [5-iodotubercidin]
- effect in the four tests (TDP-43): showed an effect on at least two of the four tests

Compound: CCOc1cc(C(C)(C)C)ccc1C1=N[C@@](C)(c2ccc(Cl)cc2)[C@@](C)(c2ccc(Cl)cc2)N1C(=O)N1CCN(CCCS(C)(=O)=O)CC1 [RG7112]
- IC50 [1]: 400 nM
- inhibition of the p53/MDM2 interaction (p53/MDM2 interaction; 0.05µM (low concentration)): weak inhibition of the interaction
- inhibition of the p53/MDM2 interaction (p53/MDM2 interaction; 0.5µM (medium concentration)): moderate inhibition of the interaction
- inhibition of the p53/MDM2 interaction (p53/MDM2 interaction; 5µM (high concentration)): strong inhibition of the interaction
- inhibition of the p53/MDM2 interaction (p53/MDM2 interaction; 50µM (high concentration)): strong inhibition of the interaction
- disruption of p53/MDM2 interaction and re-localization of MDM2 in the nucleus (p53/MDM2 interaction; increasing concentrations 0.05µM, 0.5µM, 5µM, 50µM, fixed U-2 OS cells): dose-dependent manner

Compound: O=C1C(=O)c2ccccc2-c2ccccc21 [9,10-Phenanthrenequinone]
- effect in the four tests (TDP-43): showed an effect on at least two of the four tests

Compound: O=C1Nc2ccc3ncsc3c2C1=Cc1cnc[nH]1 [PKRi]
- effect in the four tests (TDP-43): showed an effect on at least two of the four tests
